{"source": "BindingDB's records for doi:10.1016/j.bmcl.2009.04.023", "about": "(Banyu Pharmaceutical, 2009)", "note": "pIC50: −log10 of the molar value.", "data": [{"molecular_target": "Nociceptin receptor (Homo sapiens, UniProt P41146)", "sequence (P41146 whole entry)": "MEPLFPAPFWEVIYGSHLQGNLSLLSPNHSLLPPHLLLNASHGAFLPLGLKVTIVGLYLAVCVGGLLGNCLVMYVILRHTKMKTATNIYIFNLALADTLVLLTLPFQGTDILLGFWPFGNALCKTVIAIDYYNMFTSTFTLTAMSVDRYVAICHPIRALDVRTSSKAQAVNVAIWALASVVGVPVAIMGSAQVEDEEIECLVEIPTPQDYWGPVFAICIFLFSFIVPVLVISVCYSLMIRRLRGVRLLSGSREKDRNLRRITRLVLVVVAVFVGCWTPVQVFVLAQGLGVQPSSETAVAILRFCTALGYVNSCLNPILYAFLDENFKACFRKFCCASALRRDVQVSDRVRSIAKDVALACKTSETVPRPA", "experiment": "In Vitro Binding Assay (IC50) and In Vitro Agonism/Antagonism Measurements (EC50/IC50)", "settings": "pH 7.4; 37 °C", "experimental": "Compounds were tested for their inhibitory effects on ligand binding to the human ORL1 receptor. Bound and free radioligands are separated by filtration using a unifilter plate GF/C-96. The remaining radioactivity on the filter was counted using a TopCount-HTS (PerkinElmer). Specific binding of [125I][Tyr14]nociceptin is defined as the difference between total binding and nonspecific binding in the presence of 1 uM nociceptin. J-113397 was used as internal control across all assay plates for internal validation. IC50 values are calculated using GraphPad Prism. Agonist/antagonist activities were measured by the [35S]GTPgamma-S binding to proteins using membrane fractions of CHO cells expressing ORL1. Nonspecific binding is determined in the presence of 10 uM unlabeled GTPgammaS. Membrane-bound radioactivity is measured using a TopCount-HTS (PerkinElmer). Specific binding of [35S]GTPgammaS is determined as a difference between the control (in the presence of appropriate concentration of nociceptin), and the baseline (in the presence of DMSO instead of compound). EC50/IC50 values are calculated from % of specific binding in the presence of various concentration of the compound using GraphPad Prism 3.03.", "values": [{"compound": "CCN1CCN(c2cc3[nH]c(C(=O)[C@]4(C)CC[C@@H](NC(=O)OC)CC4)nc3cc2Cl)CC1", "note": "[2-Cyclohexylcarbonylbenzimidazole, 7a]", "pIC50": 8.12}, {"compound": "CCN1CCN(c2cc3[nH]c(C(=O)[C@]4(C)CC[C@@H](NC(=O)OC)CC4)nc3cc2C)CC1", "note": "[2-Cyclohexylcarbonylbenzimidazole, 7b]", "pIC50": 8.28}, {"compound": "CCN1CCN(c2cc3[nH]c(C(=O)[C@]4(C)CC[C@@](C)(O)CC4)nc3cc2Cl)CC1", "note": "[2-Cyclohexylcarbonylbenzimidazole, 7c]", "pIC50": 8.89}, {"compound": "CCN1CCN(c2cc3[nH]c(C(=O)[C@]4(CC)CC[C@@](C)(O)CC4)nc3cc2Cl)CC1", "note": "[2-Cyclohexylcarbonylbenzimidazole, 7e]", "pIC50": 8.62}, {"compound": "CCN1CCN(c2cc3[nH]c(C(=O)C4(C)CCC(=O)CC4)nc3cc2Cl)CC1", "note": "[2-Cyclohexylcarbonylbenzimidazole, 9]", "pIC50": 7.42}]}]}
